Experimental data as given in patent US7232837B2, “Stereoisomers with high affinity for adrenergic receptors” (McNeil-PPC, Inc., priority 1999, dated 2007).
Structures can show the parent of a compound that is named as a salt.

Key:
[1] = system: Swiss-Webster mice; assay: Locomotor stimulant and depressant effects in mice; conditions: i.p.
Description: Male Swiss-Webster mice (HSD ND4, Harlan Sprague Dawley, Houston, Tex.) aged 2–3 months were used in these studies. Each dose group consisted of 8 mice. The mice were housed 2 to 4 per cage in 30.4×22.9×15.2 cm clear polycarbonate cages with food and water available ad libitum for at least one week prior to locomotor activity testing. The colony was maintained at 23±1° C., on a normal light-dark cycle beginning at 0700 hr. All testing took place during the light portion of the light-dark cycle.
Horizontal (forward movement) locomotor activity was measured using a standardized, optical activity monitoring system [Model KXYZCM (16), Omnitech Electronics, Columbus, Ohio]. Activity was monitored in forty 40.5×40.5×30.5 cm clear acrylic chambers that where housed in sets of two within larger sound-attenuating chambers. A panel of 16 infrared beams and corresponding photodetectors were spaced 2 cm apart along the sides and 2.4 cm above the floor of each activity chamber. A 7.5-W incandescent light above each chamber provided dim illumination via a rheostat set to 20% of full scale. Fans provided an 80-dB ambient noise level within the chamber.
Triprolidine HCl was obtained from Research Biochemicals International, (Natick, Mass.).
Locomotor stimulant effects. […] (+)-Amphetamine was used as a positive control. The total horizontal distance traversed (cm) was recorded at 10 minute intervals for a 2-hour session. Separate groups of 8 mice were assigned to each dose or saline group, and dose-effect testing continued for each compound until maximal stimulant or depressant effects could be estimated. A separate control group was tested along with each compound.
Using TableCurve 2D v2.03 (Jandel Scientific), the mean average total distance traversed (cm/10 min) for that period was fit to a 3-parameter logistic peak function of log10 dose (with the constant set to the mean of the saline group), and the maximum effect estimated from the resulting curve. The […] (dose producing ½ maximal stimulant activity) was estimated from a linear regression against log10 dose of the ascending portion of the dose-effect curve. The stimulant efficacy was the peak effect of the compound (cm/10 min) as estimated from the logistic peak function, minus the mean control distance traveled (cm/10 min), and was expressed for each stimulant compound as a ratio to the stimulant efficacy determined for (+)-amphetamine.
The mean average total distance traversed (cm/10 min) for that period were fit to a linear function of log10 dose of the descending portion of the dose-effect curve. […] Efficacy was the ratio of maximal depressant effect to maximum possible depression for each compound (mean average total distance of the control group minus the lowest mean total distance, expressed as a ratio to the control group total distance).
Statistical analysis. Time course data for each compound were considered in 2-way analyses of variance with dose as a between-group and time as a within-group factor. The dose-effect data were considered in 1-way analyses of variance, and planned individual comparisons were conduced between each dose and the saline control group. Interaction studies were considered in 2-way analyses of variance, with Pretreatment and Test dose as the factors.

[2] = system: α2 adrenergic receptors; assay: Alpha-2 binding, 125iodoclonidine, canine brain (frontal cortex) membranes; design: species or system canine (mongrel dogs); conditions: α2-displacement assay, check for imidazoline receptors
Description: BRAIN ALPHA-2 RECEPTORS: Membranes of mongrel dogs were harvested from the canine frontal cortex and prepared as described for lung except that the final membrane protein concentration was adjusted to 0.5 mg/ml.
ALPHA-2 BINDING ^125IODOCLONIDINE. […] Nonspecific binding was determined in separate incubations in the presence of 10 μM phentolamine. The final concentration of p-iodoclonidine was 44–45 pM in competition studies and between 50 pM and 10 nM in saturation experiments. Bound and free p-^125iodoclonidine were separated and the bound quantified as described above for the ICYP assays. […] BETA-2 BINDING, ^125IODOCYANOPINDOLOL (^125ICYP). […] Nonspecific binding was determined in separate incubations in the presence of 2 μM d,l-propranolol. Each experimental point was determined in triplicate. […] Incubations were terminated as described above for the α1 assays. Filters were placed into polyethylene tubes and the bound ligand was determined by gamma spectrometry (Sano et al., 1993).
All data were analyzed with the aid of microcomputer nonlinear curve fitting programs (PRISM 2.0, Graphpad Software, San Diego Calif.).
The receptors resident in each of the three membrane preparations were evaluated by standard saturation analysis following the addition of increasing concentrations of the appropriate radioligand. […] The radio ligand added for subsequent α2-displacement assays was adjusted to evaluate only the high affinity receptor. Contributions from p-iodoclonidine binding to imidazoline receptors in the α2-displacement assay were evaluated with epinephrine.
The variable, I, is the concentration of tracer added and the variable, Kd, is the equilibrium dissociation constant empirically determined for this receptor population.

[3] = system: New Zealand white rabbits; assay: Intraocular pressure (IOP) after topical application to the rabbit eye; format: in vivo; conditions: for IOP: mean ± S.E.
Description: (§1) These diastereomers were administered topically as either 1% or 2% solutions in buffered saline. Pupillary diameter and IOP were measured in all animals over a six hour time period during the day to minimize diurnal variations in IOP and pupil diameter.
(§2) The experiments were performed on adult male New Zealand white rabbits weighing 3.0–6.0 kg. All rabbits were caged individually and maintained on a 12 hr/12 hr light/dark schedule with free access to food and water. All animal procedures were in conformity with the ARVO Resolution on the Use and Care of Animals in Research. All treated rabbits had served as controls by having received a saline treatment on a different day.
(§3) Only one eye received drug treatment. The contralateral eye served as a control. Saline (or PBS) and drug treated rabbits were treated and observed simultaneously. A single dose was given at time zero and IOP and pupil diameter measured at −1.0, −0.5, 0.5, 1, 3 and 5 hrs post-treatment.
IOP measurements were recorded with an Alcon Applanation Pneumotonograph (Surgical Products Division, Alcon Laboratories, Inc., Ft. Worth, Tex.) in rabbits placed in Lucite restraining cages. Initial topical application of a two drop 0.5% proparacaine HCl (Ophthetic®, Allergan Pharmaceuticals, Inc.) was performed on each rabbit.
(§4) Mean and Standard Error values were used to construct time-response and dose-response curves for the treated and contralateral eye of research rabbits. The data were analyzed statistically by an analysis of variance and a Bonferoni's test for significance. P<0.05 was the accepted level of significance.

[4] = system: New Zealand white rabbits; assay: Pupil diameter / mydriasis after topical application to the rabbit eye; format: in vivo; design: key to Mydriatic Responses, UNTREATED EYE: 0 = No change; + = 0–2 mm change; ++ = 2–4 mm change; conditions: for Pupil Diameter: mean ± S.E.
Description: as §1, §2, §3
Pupil diameter was measured visually at the point of the greatest horizontal diameter with a transparent millimeter ruler. All measurements were made under the identical ambient lighting conditions.
as §4

[5] = 1% topical, drug treated eye (T), 0.5 hr
[6] = 1% topical, drug treated eye (T), 1 hr
[7] = 1% topical, drug treated eye (T), 3 hr
[8] = 1% topical, drug treated eye (T), 5 hr
[9] = 1% topical, drug treated eye (T), −0.5 hr (pre-treatment)
[10] = 1% topical, drug treated eye (T), −1 hr (pre-treatment)
[11] = 1% topical, untreated contralateral eye (U), 0.5 hr
[12] = 1% topical, untreated contralateral eye (U), 1 hr
[13] = 1% topical, untreated contralateral eye (U), 3 hr
[14] = 1% topical, untreated contralateral eye (U), 5 hr
[15] = 1% topical, untreated contralateral eye (U), −0.5 hr (pre-treatment)
[16] = 1% topical, untreated contralateral eye (U), −1 hr (pre-treatment)
[17] = 2% topical, drug treated eye (T), 0.5 hr
[18] = 2% topical, drug treated eye (T), 1 hr
[19] = 2% topical, drug treated eye (T), 3 hr
[20] = 2% topical, drug treated eye (T), 5 hr
[21] = 2% topical, drug treated eye (T), −0.5 hr (pre-treatment)
[22] = 2% topical, drug treated eye (T), −1 hr (pre-treatment)
[23] = 2% topical, untreated contralateral eye (U), 0.5 hr
[24] = 2% topical, untreated contralateral eye (U), 1 hr
[25] = 2% topical, untreated contralateral eye (U), 3 hr
[26] = 2% topical, untreated contralateral eye (U), 5 hr
[27] = 2% topical, untreated contralateral eye (U), −0.5 hr (pre-treatment)
[28] = 2% topical, untreated contralateral eye (U), −1 hr (pre-treatment)

CC(N)Cc1ccccc1 (single isomer, unassigned; (+)) [(+)-amphetamine, (+)-Amphetamine]
locomotor stimulant effects, time course (result in words) [1]: dose- and time-dependent increase in the distance traversed within 10 minutes following injection

CNC[C@H](O)c1ccc(O)c(O)c1 [Epinephrine]
displacement of bound p-iodoclonidine [2]: easily displaced all bound p-iodoclonidine

C[C@H](N)[C@H](O)c1cccc(O)c1 [Metaraminol Bitartrate Salt, USP, metaraminol bitartrate salt, reference compound]
effect on IOP (result in words) ([3]; 1% or 2% topical, rabbit): accompanying increase in IOP
IOP [3, 5]: 25 ± 1.2 mmHg
IOP [3, 6]: 24 ± 1.3 mmHg
IOP [3, 7]: 21 ± 2.8 mmHg
IOP [3, 8]: 21 ± 2.7 mmHg
IOP [3, 9]: 19 ± 1.3 mmHg
IOP [3, 10]: 21 ± 2.3 mmHg
IOP [3, 11]: 18 ± 1.7 mmHg
IOP [3, 12]: 18 ± 1.0 mmHg
IOP [3, 13]: 19 ± 1.4 mmHg
IOP [3, 14]: 17 ± 0.8 mmHg
IOP [3, 15]: 16 ± 1.1 mmHg
IOP [3, 16]: 18 ± 1.4 mmHg
IOP [3, 17]: 15 ± 1.1 mmHg
IOP [3, 18]: 16 ± 3.6 mmHg
IOP [3, 19]: 14 ± 2.0 mmHg
IOP [3, 20]: 13 ± 0.8 mmHg
IOP [3, 21]: 14 ± 0.9 mmHg
IOP [3, 22]: 15 ± 0.7 mmHg
IOP [3, 23]: 19 ± 1.1 mmHg
IOP [3, 24]: 18 ± 0.8 mmHg
IOP [3, 25]: 19 ± 1.1 mmHg
IOP [3, 26]: 21 ± 1.6 mmHg
IOP [3, 27]: 15 ± 0.7 mmHg
IOP [3, 28]: 17 ± 1.2 mmHg
mydriasis / pupil diameter (result in words) ([4]; 1% or 2% topical, rabbit): produced mydriasis
Mydriatic Responses, TREATED EYE ([4]; 1% topical): ++ (++ = 2–4 mm change)
Mydriatic Responses, UNTREATED EYE ([4]; 1% topical): 0
Pupil Diameter [4, 5]: 9 ± 0.5 mm
Pupil Diameter [4, 6]: 9 ± 0.5 mm
Pupil Diameter [4, 7]: 9 ± 0.2 mm
Pupil Diameter [4, 8]: 9 ± 0.5 mm
Pupil Diameter [4, 9]: 7 ± 0.5 mm
Pupil Diameter [4, 10]: 7 ± 0.5 mm
Pupil Diameter [4, 11]: 7 ± 0.5 mm
Pupil Diameter [4, 12]: 7 ± 0.5 mm
Pupil Diameter [4, 13]: 7 ± 0.5 mm
Pupil Diameter [4, 14]: 7 ± 0.5 mm
Pupil Diameter [4, 15]: 7 ± 0.5 mm
Pupil Diameter [4, 16]: 7 ± 0.5 mm
Pupil Diameter [4, 17]: 10 ± 0.2 mm
Pupil Diameter [4, 18]: 10 ± 0.2 mm
Pupil Diameter [4, 19]: 10 ± 0.2 mm
Pupil Diameter [4, 20]: 10 ± 0.2 mm
Pupil Diameter [4, 21]: 5 ± 0.2 mm
Pupil Diameter [4, 22]: 5 ± 0.2 mm
Pupil Diameter [4, 23]: 10 ± 0.2 mm
Pupil Diameter [4, 24]: 10 ± 0.2 mm
Pupil Diameter [4, 25]: 10 ± 0.2 mm
Pupil Diameter [4, 26]: 10 ± 0.2 mm
Pupil Diameter [4, 27]: 5 ± 0.2 mm
Pupil Diameter [4, 28]: 5 ± 0.2 mm

Mephentermine Hemisulfate Salt [reference compound]
IOP [3, 5]: 24 ± 1.0 mmHg
IOP [3, 6]: 24 ± 0.7 mmHg
IOP [3, 7]: 22 ± 0.9 mmHg
IOP [3, 8]: 18 ± 1.6 mmHg
IOP [3, 9]: 18 ± 1.8 mmHg
IOP [3, 10]: 19 ± 1.7 mmHg
IOP [3, 11]: 20 ± 2.1 mmHg
IOP [3, 12]: 17 ± 1.6 mmHg
IOP [3, 13]: 20 ± 1.4 mmHg
IOP [3, 14]: 17 ± 1.5 mmHg
IOP [3, 15]: 17 ± 1.0 mmHg
IOP [3, 16]: 17 ± 1.1 mmHg
IOP [3, 17]: 23 ± 2.2 mmHg
IOP [3, 18]: 23 ± 2.2 mmHg
IOP [3, 19]: 21 ± 2.3 mmHg
IOP [3, 20]: 23 ± 1.5 mmHg
IOP [3, 21]: 19 ± 2.0 mmHg
IOP [3, 22]: 21 ± 2.3 mmHg
IOP [3, 23]: 18 ± 1.6 mmHg
IOP [3, 24]: 16 ± 1.0 mmHg
IOP [3, 25]: 18 ± 0.8 mmHg
IOP [3, 26]: 20 ± 1.7 mmHg
IOP [3, 27]: 17 ± 2.1 mmHg
IOP [3, 28]: 18 ± 2.2 mmHg
Mydriatic Responses, TREATED EYE ([4]; 1% topical): ++ (++ = 2–4 mm change)
Mydriatic Responses, UNTREATED EYE ([4]; 1% topical): 0
Pupil Diameter [4, 5]: 10 ± 0.2 mm
Pupil Diameter [4, 6]: 10 ± 0.2 mm
Pupil Diameter [4, 7]: 10 ± 0.2 mm
Pupil Diameter [4, 8]: 10 ± 0.2 mm
Pupil Diameter [4, 9]: 7 ± 0.2 mm
Pupil Diameter [4, 10]: 7 ± 0.2 mm
Pupil Diameter [4, 11]: 7 ± 0.2 mm
Pupil Diameter [4, 12]: 7 ± 0.2 mm
Pupil Diameter [4, 13]: 7 ± 0.2 mm
Pupil Diameter [4, 14]: 7 ± 0.2 mm
Pupil Diameter [4, 15]: 7 ± 0.2 mm
Pupil Diameter [4, 16]: 7 ± 0.2 mm
Mydriatic Responses, TREATED EYE ([4]; 2% topical): + (+ = 0–2 mm change)
Mydriatic Responses, UNTREATED EYE ([4]; 2% topical): 0
Pupil Diameter [4, 17]: 7 ± 0.7 mm
Pupil Diameter [4, 18]: 8 ± 0.7 mm
Pupil Diameter [4, 19]: 6 ± 0.4 mm
Pupil Diameter [4, 20]: 6 ± 0.4 mm
Pupil Diameter [4, 21]: 6 ± 0.3 mm
Pupil Diameter [4, 22]: 6 ± 0.3 mm
Pupil Diameter [4, 23]: 6 ± 0.3 mm
Pupil Diameter [4, 24]: 6 ± 0.3 mm
Pupil Diameter [4, 25]: 6 ± 0.3 mm
Pupil Diameter [4, 26]: 6 ± 0.3 mm
Pupil Diameter [4, 27]: 6 ± 0.4 mm
Pupil Diameter [4, 28]: 6 ± 0.4 mm
